# Test results reported in US9750759B2, “Antitumoral compounds” (priority 2008, dated 2017).
# Where two headings read alike, the source gives them in different places.
# Experiments:
# Test in all cases: cells
# Type in all cases: cell-based
# [1] = tested on: HT29; conditions: Homo sapiens; for GI50: concentration that produces 50% growth inhibition; for IC (total growth inhibition): total growth inhibition (cytostatic effect), read-out: TGI
# Source text: (§1) The aim of this assay is to evaluate the in vitro cytostatic (ability to delay or arrest tumor cell growth) or cytotoxic (ability to kill tumor cells) activity of the samples being tested.
# (§2) A colorimetric type of assay, using sulforhodamine B (SRB) reaction has been adapted for a quantitative measurement of cell growth and viability (following the technique described by Skehan P et al. J. Natl. Cancer Inst. 1990, 82, 1107-1112).
# (§3) This form of assay employs SBS-standard 96-well cell culture microplates (Faircloth et al. Methods in cell science, 1988, 11(4), 201-205; Mosmann et al, Journal of Immunological. Methods, 1983, 65(1-2), 55-63). All the cell lines used in this study, derived from different types of human cancer, were obtained from the American Type Culture Collection (ATCC).
# (§4) Cells were maintained in Dulbecco's Modified Eagle Medium (DMEM) supplemented with 10% Fetal Bovine Serum (FBS), 2 mM L-glutamine, 100 U/mL penicillin and 100 U/mL streptomycin at 37° C., 5% CO2 and 98% humidity. For the experiments, cells were harvested from subconfluent cultures using trypsinization and resuspended in fresh medium before counting and plating.
# (§5) Cells were seeded in 96 well microtiter plates at 5×10^3 cells per well in aliquots of 150 μL, and allowed to attach to the plate surface for 18 hours in drug free medium. One control (untreated) plate of each cell line was fixed (as described below) and used for time zero reference value. Afterwards, test samples were added to the cultures in ten serial dilutions, in aliquots of 50 μL, ranging from 10 to 0.00262 μg/mL. After 48 hours exposure, the antitumor effect was estimated by the SRB method: Briefly, cells were washed twice with PBS, fixed for 15 min in 1% glutaraldehyde solution, rinsed twice in PBS, and stained in 0.4% SRB solution for 30 min at room temperature. Cells were then rinsed several times with 1% acetic acid solution and air-dried. SRB was then extracted in 10 mM trizma base solution and the absorbance measured in an automated spectrophotometric plate reader at 490 nm. Cell survival was expressed as percentage of control cell growth. The final effect of the sample being tested was estimated by applying the NCI algorithm (Boyd M R and Paull K D. Drug Dev. Res. 1995, 34, 91-104).
# (§6) Using the mean±SD of triplicate cultures, a dose-response curve was automatically generated using nonlinear regression analysis. Three reference parameters were calculated (NCI algorithm) by automatic interpolation: GI50=concentration that produces 50% growth inhibition; TGI=total growth inhibition (cytostatic effect) and LC50=concentration that produces 50% net cell killing (cytotoxic effect).
# [2] = tested on: A549; conditions: Homo sapiens; for GI50: concentration that produces 50% growth inhibition; for IC (total growth inhibition): read-out: TGI
# Source text: as §1, §2, §3, §4, §5, §6
# [3] = tested on: MDA-MB-231; conditions: Homo sapiens; for GI50: concentration that produces 50% growth inhibition; for IC (total growth inhibition): read-out: TGI
# Source text: as §1, §2, §3, §4, §5, §6
# [4] = HT-29, HT29, 48 hours exposure, concentration that produces 50% net cell killing, read-out: LC50 (the source's name)
# [5] = A549, 48 hours exposure, concentration that produces 50% net cell killing, read-out: LC50 (the source's name)
# [6] = A549, 48 hours exposure, total growth inhibition (cytostatic effect)
# [7] = MDA-MB-231, 48 hours exposure, concentration that produces 50% net cell killing, read-out: LC50 (the source's name)
# [8] = MDA-MB-231, 48 hours exposure, total growth inhibition (cytostatic effect)
# [9] = MDA-MB-231, 48 h, read-out: LC50
SMILES,"GI50 ([1]; HT-29, HT29, 48 hours exposure) [nM]","CC50 [1, 4] [nM]","IC (total growth inhibition) ([1]; HT-29, HT29, 48 hours exposure) [µM]","GI50 ([2]; A549, 48 hours exposure) [nM]","CC50 [2, 5] [nM]","IC (total growth inhibition) [2, 6] [µM]","GI50 ([3]; MDA-MB-231, 48 hours exposure) [nM]","CC50 [3, 7] [nM]","IC (total growth inhibition) [3, 8] [µM]","CC50 ([1]; HT-29, 48 h, read-out: LC50) [nM]","CC50 ([2]; A549, 48 h, read-out: LC50) [nM]","CC50 [3, 9] [nM]","IC (total growth inhibition) ([3]; MDA-MB-231, 48 h) [µM]","IC (total growth inhibition) ([2]; A549, 48 h) [µM]"
C/C=C\C[C@@H](C/C=C\NC(=O)[C@@H](NC(=O)C#C/C=C\C(C)=C\[C@H](C)[C@@H]1CC=C(OC)C(=O)O1)C(C)(C)C)O[Si](c1ccccc1)(c1ccccc1)C(C)(C)C [Compound 79],5100,> 13100,> 13.1,> 13100,> 13100,> 13.1,> 13100,> 13100,> 13.1,,,,,
COC1=CC[C@@H]([C@@H](C)/C=C(C)/C=C\C#CCCC(=O)N[C@H](C(=O)N/C=C\C[C@H](C/C=C(\C)Cl)O[Si](c2ccccc2)(c2ccccc2)C(C)(C)C)C(C)(C)C)OC1=O [Compound 98],53.2,169,0.0701,111,> 12100,0.495,104,> 12100,0.181,,,,,
COC1=CC[C@@H]([C@@H](C)/C=C(C)/C=C\C#CCCC(=O)N[C@H](C(=O)N/C=C\C[C@H](C/C=C(\C)Cl)OC(N)=O)C(C)(C)C)OC1=O [Compound 100],53.8,,0.301,395,,2.21,348,,,7590,> 15800,> 15800,> 15.8,
COC1=CC[C@@H]([C@@H](C)/C=C\C=C/C(=O)N[C@H](C(=O)N/C=C\C[C@H](C/C=C(\C)Cl)O[Si](C)(C)C(C)(C)C)C(C)(C)C)OC1=O [Compound 67],1880,3140,2.35,1570,4860,2.82,910,1210,1.04,,,,,
COC1=CC[C@@H]([C@@H](C)/C=C(C)/C=C\C#CC(=O)N[C@H](C(=O)N/C=C\C[C@H](C/C=C(\C)Cl)OC(N)=O)C(C)C)OC1=O [Compound 66b],22,,0.0288,25.4,,0.0813,27.1,,0.373,42.4,> 16900,4580,,
COC1=CC[C@@H]([C@@H](C)/C=C(C)/C=C\C#CC(=O)N[C@H](C(=O)N/C=C\C[C@@H](O)C/C=C(\C)Cl)C(C)(C)C)OC1=O [Compound 65a],1780,,3.03,3390,,6.24,3560,,9.98,7310,11800,> 17800,,
COC1=CC[C@@H]([C@@H](C)/C=C\C=C/C(=O)N[C@H](C(=O)N/C=C\C[C@H](C/C=C(\C)Cl)OC(N)=O)C(C)(C)C)OC1=O [Compound 69],173,,0.424,230,,,336,,1.63,> 17700,> 17700,8130,,> 17.7
CC#CC[C@@H](C/C=C\NC(=O)[C@@H](NC(=O)\C=C/C=C\C(C)=C\[C@H](C)[C@@H]1CC=C(OC)C(=O)O1)C(C)(C)C)OC(N)=O [Compound 72],0.0579,,0.000125,0.176,,0.00281,0.246,,0.00193,> 176,> 176,> 176,,
COC1=CC[C@@H]([C@@H](C)/C=C\C=C/C(=O)N[C@H](C(=O)N/C=C\C[C@@H](O)C/C=C(\C)Cl)C(C)(C)C)OC1=O [Compound 68],459,,0.707,1470,,4.21,784,,1.49,> 19100,> 19100,6500,,
COC1=CC[C@@H]([C@@H](C)/C=C(C)/C=C\C#CC(=O)N[C@H](C(=O)N/C=C\C[C@H](C/C=C(\C)Cl)O[Si](C)(C)C(C)(C)C)C(C)(C)C)OC1=O [Compound 64a],2220,> 14800,4.29,4440,> 14800,> 14.8,4890,> 14800,> 14.8,,,,,
COC1=CC[C@@H]([C@@H](C)/C=C(C)/C=C\C#CCCC(=O)N[C@H](C(=O)N/C=C\C[C@@H](O)C/C=C(\C)Cl)C(C)(C)C)OC1=O [Compound 99],900,,2.21,3060,,6.62,2720,,6.11,5770,12200,13200,,
C/C=C\C[C@H](O)C/C=C\NC(=O)[C@@H](NC(=O)/C=C\C#C/C(C)=C/[C@H](C)[C@@H]1CC=C(OC)C(=O)O1)C(C)(C)C [Compound 96],5890,,8.92,7780,,> 19,13100,,> 19,> 19000,> 19000,> 19000,,
COC1=CC[C@@H]([C@@H](C)/C=C(C)/C=C\C#CC(=O)N[C@H](C(=O)N/C=C\C[C@H](C/C=C(\C)Cl)OC(N)=O)C(C)(C)C)OC1=O [Compound 66a],12.1,,0.0513,33.1,,0.397,44.7,,0.778,2810,> 16600,> 16600,,
